The target of test [1] is T1, XenA (Pseudomonas putida, UniProt Q9R9V9).
T1 construct: recombinant purified FMN ene-reductase, His-tagged (position differs from earlier reports)
Description: X-ray crystal structure. The test is classed as binding. To be noted: active site, oxidized flavin.

For test [2], the target named is T2, OPR3 (Solanum lycopersicum, UniProt Q9FEW9, Y370F).
T2 construct: recombinant purified FMN ene-reductase; construct details in supplement
Description: stopped-flow pre-steady-state kinetics, oxidative half-reaction. It counts as biochemical. The settings on record: oxidative half-reaction of reduced enzyme; read-out: Kd oxime. The text has this: (§1) stopped-flow pre-steady-state kinetics, oxidative half-reaction on OPR3

Test [3] deals with T3, OPR3 (Solanum lycopersicum, UniProt Q9FEW9, Y190F).
T3 construct: recombinant purified FMN ene-reductase; construct details in supplement
T3 sequence (Q9FEW9 whole entry Y190F): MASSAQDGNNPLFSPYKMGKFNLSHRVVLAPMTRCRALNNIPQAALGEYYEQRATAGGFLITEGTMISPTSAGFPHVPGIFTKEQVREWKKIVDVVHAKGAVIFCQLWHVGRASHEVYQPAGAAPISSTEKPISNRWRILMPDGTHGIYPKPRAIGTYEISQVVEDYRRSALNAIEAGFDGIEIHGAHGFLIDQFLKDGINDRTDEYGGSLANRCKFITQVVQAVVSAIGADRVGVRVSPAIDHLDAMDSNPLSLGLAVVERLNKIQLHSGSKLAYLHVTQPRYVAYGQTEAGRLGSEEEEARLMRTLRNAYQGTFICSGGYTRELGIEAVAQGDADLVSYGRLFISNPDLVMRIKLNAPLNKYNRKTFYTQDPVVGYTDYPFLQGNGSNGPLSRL
The test is described as above. The test is classed as biochemical. To be noted: oxidative half-reaction of reduced enzyme; read-out: Kd oxime.
Description: as §1

Test [4] addresses T4, OPR3 (Solanum lycopersicum, UniProt Q9FEW9).
T4 construct: recombinant purified FMN ene-reductase; construct details in supplement
Described as above. The settings on record: oxidative half-reaction of reduced enzyme; read-out: Kd oxime. It counts as biochemical.
Description: as §1

Test [5] deals with T4, OPR3. Description: X-ray crystal structure. The test is classed as binding. To be noted: active site, oxidized flavin.
Test [6] concerns the target T1, XenA. Description: stopped-flow pre-steady-state kinetics, oxidative half-reaction. To be noted: oxidative half-reaction of reduced enzyme; read-out: Kd oxime. The test is classed as biochemical. The text has this: stopped-flow pre-steady-state kinetics, oxidative half-reaction on XenA
Test [7] concerns the target T1, XenA. The test is described as follows: stopped-flow pre-steady-state kinetics, reductive half-reaction. To be noted: read-out: Kd NADPH; reductive half-reaction of oxidized enzyme. It counts as biochemical. From the text: stopped-flow pre-steady-state kinetics, reductive half-reaction on XenA

T1 sequence (Q9R9V9 entry or part of it): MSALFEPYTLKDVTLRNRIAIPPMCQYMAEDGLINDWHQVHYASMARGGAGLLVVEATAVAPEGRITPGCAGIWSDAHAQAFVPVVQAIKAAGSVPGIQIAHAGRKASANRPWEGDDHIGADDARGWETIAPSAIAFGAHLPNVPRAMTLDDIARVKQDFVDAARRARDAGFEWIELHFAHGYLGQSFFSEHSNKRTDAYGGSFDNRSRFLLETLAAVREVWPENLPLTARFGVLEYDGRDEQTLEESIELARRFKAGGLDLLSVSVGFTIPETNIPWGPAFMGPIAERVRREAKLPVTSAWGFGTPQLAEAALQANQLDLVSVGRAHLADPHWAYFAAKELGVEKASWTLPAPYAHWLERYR
T4 sequence (Q9FEW9 whole entry): as the sequence (Q9FEW9 whole entry Y190F) above, with F190Y counted along it
T2 sequence (Q9FEW9 whole entry Y370F): as the sequence (Q9FEW9 whole entry Y190F) above, with F190Y, Y370F counted along it

With `CCOC(=O)C(=NO)C(C)=O` [1a, oxime 1a], the X-ray crystal structure entry at XenA [1] is on record as “(b) XenA/1a”. Moreover, the results for the Kd at OPR3 [2], on OPR3 [3] and on OPR3 [4] were 37.4 ± 4.4 µM, 69 ± 4 µM and 79 ± 4 µM, respectively.
For the molecule `CCOC(=O)C(=NO)C(=O)CC` [1b, oxime 1b], on OPR3 [5], the X-ray crystal structure result was “(c) OPR3/1b”. Further, on XenA [6], the Kd stood at 6430 ± 1570 µM.
As for `NC(=O)C1=CN([C@@H]2O[C@H](COP(=O)(O)OP(=O)(O)OC[C@H]3O[C@@H](n4cnc5c(N)ncnc54)[C@H](OP(=O)(O)O)[C@@H]3O)[C@@H](O)[C@H]2O)C=CC1` [NADPH], the Kd on XenA [7] turned out to be 109 ± 5.1 µM.

In general, Kd refers to the concentration at which binding is half-saturated.

Source of the values: publication PMC9942197, “Mechanistic Insights into the Ene-Reductase-Catalyzed Promiscuous Reduction of Oximes to Amines” (ACS Catalysis, 2023).
